ChEMBL document CHEMBL5724696, “Autophagy assay results for EUbOPEN Chemogenomics Library” (2024)

Test system: TERT-RPE1
Experiment: Here: values are normalized to the negative (DMSO; defined as 0% autophagy induction) and positive (250nM Torin1; mTOR inhibitor; defined as maximal inducer of autophagy = 100%) control compounds and represented as % of autophagy induction. […] The impact of autophagy induction on cells is complex and depends on the affected target. As such, the magnitude of a phenotype may not be equally mirrored in the %-value of autophagy induction and vice versa. The dynamics of the induction may indicate the mode of activation: e.g. activation via phosphorylation or a signaling cascade may occur fast, while activation via transcription factors may take considerably longer. […] Of note, treatment concentrations may be sub-optimal for specific compounds, leading to false negative annotations.
Assay type: functional, Homo sapiens
Conditions: Compound Concentration 1 uM, Culturing Media DMEM/F12 (1:1), 1 % Penicillin/Streptomycin, 10% Fetal bovin serum Add-On: No, Screening Media Control DMEM/F12 (1:1), Screening Media Samples DMEM/F12 (1:1)

SMILES	autophagy induction (Timepoint 12 hours)	autophagy induction (Timepoint 24 hours)	autophagy induction (Timepoint 36 hours)	autophagy induction (Timepoint 60 hours)
C=C1/C(=C\C=C2/CCC[C@]3(C)[C@@H]([C@H](C)/C=C/[C@H](C)C(C)C)CC[C@@H]23)C[C@@H](O)C[C@@H]1O [DOXERCALCIFEROL]	-0.6335%	-0.7736%	0.8774%	-4.588%
CCOP(=O)(OCC)C(=Cc1cc(C(C)(C)C)c(O)c(C(C)(C)C)c1)P(=O)(OCC)OCC	-14.535%	-0.01812%	17.6383%	-21.9097%
CO[C@H]1/C=C/O[C@@]2(C)Oc3c(C)c(O)c4c(O)c(c(/C=N/N5CCN(C)CC5)c(O)c4c3C2=O)NC(=O)/C(C)=C\C=C\[C@H](C)[C@H](O)[C@@H](C)[C@@H](O)[C@@H](C)[C@H](OC(C)=O)[C@@H]1C [RIFAMPIN]	-6.53%	-7.862%	-4.147%	5.829%
CCO[C@@H](Cc1ccc(OCCc2ccc(OS(C)(=O)=O)cc2)cc1)C(=O)O [TESAGLITAZAR]	-2.81%	-1.872%	4.96%	2.851%
CC(=O)Oc1ccc2c(c1)[C@@]1(C)CCC[C@](C)(C(=O)OC(=O)[C@@]3(C)CCC[C@]4(C)c5cc(OC(C)=O)ccc5CC[C@@H]34)[C@@H]1CC2 [ACETYL PODOCARPIC ACID ANHYDRIDE]	-1.145%	-5.055%	-3.143%	-11.9263%
O=C(O)Cc1cc(I)c(Oc2ccc(O)c(I)c2)c(I)c1 [TIRATRICOL]	-9.01%	-9.767%	-3.577%	11.3725%
O=C(O)c1cc(F)c2nc(N3[C@@H]4CC[C@H]3C[C@@H](OCc3c(-c5ccccc5OC(F)(F)F)noc3C3CC3)C4)sc2c1 [TROPIFEXOR]	-16.0144%	-6.889%	7.971%	-23.0565%
CC(C)OC(=O)C1=CN(C(=O)c2ccc(F)c(F)c2)CC(C)(C)c2c1[nH]c1ccccc21 [TUROFEXORATE ISOPROPYL]	-4.447%	-6.097%	-6.537%	2.1006%
O=C(O)CCCc1cc2cc(Cl)ccc2n1S(=O)(=O)c1ccc2ncsc2c1 [LANIFIBRANOR]	-95.7021%	-0.9693%	14.6224%	-20.9711%
Cc1cc(OCC(=O)O)cc(C)c1Cc1ccc(O)c(C(C)C)c1 [SOBETIROME]	-4.298%	-6.005%	3.899%	12.5403%
COc1cc2c(cc1CC=C(C)C)C(=O)C[C@@H](c1ccc(O)cc1)O2 [BAVACHININ A]	-6.984%	-10.3298%	-14.6991%	1.68%
COc1cccc(Cn2cc(C(=O)Nc3ccc(C)c(S(=O)(=O)N4CCOCC4)c3)c(-c3ccc(C)cc3)n2)c1	-3.785%	-6.106%	-1.342%	-4.917%
CC(C)C(=O)N1CCC(c2cn(C)c3ncc(NC(=O)c4cccc(C#N)c4)c(C(F)(F)F)c23)CC1	-17.3669%	-7.8656%	13.4062%	-15.2604%
CCCCCCCN(CCc1ccc(SC(C)(C)C(=O)O)cc1)C(=O)Nc1ccc(F)cc1F [GSK-9578]	-3.328%	-4.346%	-1.192%	-5.756%
CN1CCN(c2ccc(/C=C(\C#N)c3ccccc3Br)cc2)CC1.Cl.Cl	-7.74%	-11.503%	-8.5159%	1.827%
C[C@H]1[C@H]2CC[C@H]3[C@@H]4CC=C5C[C@@H](N(C)C)CC[C@]5(C)[C@H]4CC[C@]23CN1C [CONESSINE]	-9.079%	-15.7832%	-16.9143%	14.1244%
CCCc1c(OCCCOc2ccc(OCC(=O)O)cc2)ccc(C(C)=O)c1O	-6.598%	-4.053%	-2.5514%	-8.413%
COC(=O)c1sccc1S(=O)(=O)Nc1ccc(Nc2ccccc2)cc1OC	-12.2106%	-1.2%	15.0919%	-15.7117%
